Activity calls are given as the source filed them. No cut-off for these calls is given here.
Experiments:
MDA-MB-231 [1] = test: Antiproliferative activity against human MDA-MB-231 cells by WST-1 method after 72 hrs; type: functional, cell-based; conditions: MDA-MB-231, 72 h
MDA-MB-231 [2] = test: Growth inhibition of human MDA-MB-231 cells at 100 uM by WST-1 method after 72 hrs; type: functional, cell-based

| Compound | IC50 (MDA-MB-231 [1]) [µM] | Activity (MDA-MB-231 [2]) |
| --- | --- | --- |
| CCN(CC)CCn1nc2c3c(c4[nH]cnc4cc31)Oc1ccccc1-2 | 8.5 |  |
| CN(C)CCNc1cc2nc[nH]c2c2oc3ccccc3c(=O)c12 |  | Active |
| Cc1nc2cc3c4c(nn3CCN(C)C)-c3ccccc3Oc4c2[nH]1 | 17 |  |
| CN(C)CCn1nc2c3c(c4[nH]cnc4cc31)Oc1ccccc1-2 | 6.5 |  |
| CCN(CC)CCNc1cc2nc[nH]c2c2oc3ccccc3c(=O)c12 |  | Active |
| CCN(CC)CCn1nc2c3c(c4[nH]c(C)nc4cc31)Oc1ccccc1-2 | 18 |  |
